Type in all cases: biochemical
For assay [1], the target named is T1, human recombinant p38α protein kinase (Homo sapiens, UniProt Q16539).
T1 construct: purchased UBI 14-251; host or cells: E. coli
The experiment in a line: Cell-free p38α MAP kinase modulation assay (phosphorylation of myelin basic protein). The settings on record: for p38α AC50 / AC50: concentration to activate phosphorylation of myelin basic protein by 50%, ANO = activation not observed at any concentration tested; for IC50 / p38α IC50: concentration to inhibit phosphorylation of myelin basic protein by 50%, INO = inhibition not observed at any concentration tested; for p38α Max % Act: maximum observed increase in p38 MAP kinase activity in presence of compound; for effect on p38α MAP kinase activity, in words: text summary of Table I; for p38α concentration at which maximum increase in activity is observed: value in parentheses in Max % Act. The method, then:
In vitro cell-free p38α MAP kinase modulation assays were conducted by the method as described in Clerk et al., supra, (1998). Briefly, human recombinant p38α protein kinase expressed in E. Coli (UBI #14-251) was used. Myelin basic protein (MBP, UBI #13-110) was employed as substrate, and microtiter plate wells were coated with MBP (0.01 mg/ml) overnight at 4° C. Candidate compound and/or vehicle was preincubated with 0.075 μg/mL enzyme in modified HEPES buffer pH 7.4 at 25° C. for 15 minutes. The reaction was initiated by addition of 100 μM ATP and allowed to proceed for another 60 minutes. The reaction was terminated by aspirating the solution. Phosphorylated MBP was detected by incubation with a mouse monoclonal IgG2a anti-phosphoMBP antibody. Bound anti-phosphoMBP antibody was quantitated by incubation with a HRP conjugated goat anti-mouse IgG.

The target of assay [2] is T2, recombinant human p38γ MAP kinase (Homo sapiens, UniProt P53778).
T2 sequence (P53778 1-367): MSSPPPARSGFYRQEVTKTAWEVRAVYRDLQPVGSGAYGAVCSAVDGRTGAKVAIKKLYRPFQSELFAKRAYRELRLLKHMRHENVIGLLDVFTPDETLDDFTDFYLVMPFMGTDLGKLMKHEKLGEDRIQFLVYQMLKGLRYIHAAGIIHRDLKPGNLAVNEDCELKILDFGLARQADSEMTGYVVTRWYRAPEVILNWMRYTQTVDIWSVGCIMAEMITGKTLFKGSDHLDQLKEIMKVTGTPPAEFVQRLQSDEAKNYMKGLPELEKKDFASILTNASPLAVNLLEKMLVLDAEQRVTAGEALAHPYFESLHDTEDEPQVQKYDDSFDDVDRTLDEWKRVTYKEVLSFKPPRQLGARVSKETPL
The experiment in a line: Cell-free p38γ MAP kinase modulation assay (phosphorylation of myelin basic protein). The settings on record: for p38γ Max % Act: maximum observed increase in p38 MAP kinase activity in presence of compound; for effect on p38γ MAP kinase activity, in words: text summary of Table I; for p38γ concentration at which maximum increase in activity is observed: value in parentheses under Max % Act.

Assay [3] deals with T3, recombinant human p38δ MAP kinase (Homo sapiens, UniProt O15264).
T3 sequence (O15264 1-365): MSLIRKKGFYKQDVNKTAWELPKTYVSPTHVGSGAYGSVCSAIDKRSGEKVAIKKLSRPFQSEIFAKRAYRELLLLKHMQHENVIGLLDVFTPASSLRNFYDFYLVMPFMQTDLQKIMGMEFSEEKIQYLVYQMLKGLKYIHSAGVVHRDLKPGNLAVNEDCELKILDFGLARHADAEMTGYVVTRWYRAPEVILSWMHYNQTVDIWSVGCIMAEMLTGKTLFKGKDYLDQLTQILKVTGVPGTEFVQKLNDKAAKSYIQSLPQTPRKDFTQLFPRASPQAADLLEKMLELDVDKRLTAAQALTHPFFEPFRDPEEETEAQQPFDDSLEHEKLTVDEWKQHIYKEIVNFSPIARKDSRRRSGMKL
Kind of assay: Cell-free p38δ MAP kinase modulation assay (phosphorylation of myelin basic protein). The conditions noted are these: for AC50: concentration to activate phosphorylation of myelin basic protein by 50%, ANO = activation not observed at any concentration tested; for p38δ Max % Act: maximum observed increase in p38 MAP kinase activity in presence of compound; for effect on p38δ MAP kinase activity, in words: text summary of Table I; for p38δ concentration at which maximum increase in activity is observed: value in parentheses under Max % Act.

Assay [4] addresses recombinant human p38β MAP kinase (Homo sapiens, UniProt Q15759). The experiment in a line: Cell-free p38β MAP kinase modulation assay (phosphorylation of myelin basic protein). The settings on record: for AC50: concentration to activate phosphorylation of myelin basic protein by 50%, ANO = activation not observed at any concentration tested; for p38β Max % Act: maximum observed increase in p38 MAP kinase activity in presence of compound; for effect on p38β MAP kinase activity, in words: text summary of Table I; for p38β concentration at which maximum increase in activity is observed: value in parentheses in Max % Act.

Setting [5] is: concentration to activate phosphorylation of myelin basic protein by 50%, ANO = activation not observed at any concentration tested.
Setting [6] is: concentration to inhibit phosphorylation of myelin basic protein by 50%, INO = inhibition not observed at any concentration tested.

recombinant human p38β MAP kinase, sequence (Q15759 whole entry): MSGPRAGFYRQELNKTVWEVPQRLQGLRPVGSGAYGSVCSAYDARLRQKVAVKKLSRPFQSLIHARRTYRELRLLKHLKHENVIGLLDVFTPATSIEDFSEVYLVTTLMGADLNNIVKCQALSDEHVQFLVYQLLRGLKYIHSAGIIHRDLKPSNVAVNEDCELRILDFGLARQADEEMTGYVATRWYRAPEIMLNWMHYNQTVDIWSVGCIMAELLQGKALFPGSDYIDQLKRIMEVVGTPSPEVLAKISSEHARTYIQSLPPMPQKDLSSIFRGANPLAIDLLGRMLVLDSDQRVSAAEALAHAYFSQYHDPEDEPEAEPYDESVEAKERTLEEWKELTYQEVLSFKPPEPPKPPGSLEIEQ
T1 sequence (Q16539 whole entry): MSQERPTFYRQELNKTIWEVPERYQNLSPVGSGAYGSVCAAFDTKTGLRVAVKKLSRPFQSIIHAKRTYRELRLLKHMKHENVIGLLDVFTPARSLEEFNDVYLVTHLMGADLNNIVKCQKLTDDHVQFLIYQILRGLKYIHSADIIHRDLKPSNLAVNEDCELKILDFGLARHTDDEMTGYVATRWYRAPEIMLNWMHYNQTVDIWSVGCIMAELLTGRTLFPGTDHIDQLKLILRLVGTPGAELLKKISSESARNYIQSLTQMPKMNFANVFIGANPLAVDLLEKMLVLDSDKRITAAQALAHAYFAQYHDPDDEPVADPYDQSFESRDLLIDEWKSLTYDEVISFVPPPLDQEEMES

Turning to `O=C([O-])C[C@H](O)C[C@H](O)/C=C/c1c(C2CC2)nc2ccccc2c1-c1ccc(F)cc1.O=C([O-])C[C@H](O)C[C@H](O)/C=C/c1c(C2CC2)nc2ccccc2c1-c1ccc(F)cc1.[Ca+2]` [Pitavastatin calcium, reference compound], in assay [1], the “p38α AC50” value is on record as “ANO” and the IC50 (as a rule, the concentration needed to halve the response being measured) is 101 µM. Besides, the “p38γ AC50” value in assay [2] (setting [5]) is “ANO”. Also, in assay [2] (setting [6]), the “p38γ IC50” value is “INO”.
Regarding `CC(C)c1c(C(=O)Nc2ccccc2)c(-c2ccccc2)c(-c2ccc(F)cc2)n1CC[C@@H](O)C[C@@H](O)CC(=O)[O-].CC(C)c1c(C(=O)Nc2ccccc2)c(-c2ccccc2)c(-c2ccc(F)cc2)n1CC[C@@H](O)C[C@@H](O)CC(=O)[O-].[Ca+2]` [Atorvastatin calcium, atorvastatin calcium, reference compound], the “p38α AC50” value in assay [1] is on record as “ANO^d”.
`COCc1c(C(C)C)nc(C(C)C)c(/C=C/[C@@H]2C[C@@H](O)CC(=O)O2)c1-c1ccc(F)cc1` [Cerivastatin lactone, cerivastatin lactone]: in assay [1], the AC50 (usually the concentration giving half of the maximal activity seen) is roughly 10 µM; the “p38α IC50” value was “INO”; the “p38α Max % Act” value stood at 76%; the “effect on p38α MAP kinase activity, in words” value is “can activate”. Besides, the “p38α concentration at which maximum increase in activity is observed” value in assay [1] came to 100 µM. Further, in assay [3], the AC50 is roughly 8 µM; the “p38δ Max % Act” value came to 158%; the “effect on p38δ MAP kinase activity, in words” value is on record as “can activate”; the “p38δ concentration at which maximum increase in activity is observed” value is given as “(100 μM)”. Besides, in assay [3] (setting [6]), the “p38δ IC50” value was “INO”. In addition, in assay [4], the AC50 is roughly 5 µM; the “p38β Max % Act” value turned out to be 143%; the “effect on p38β MAP kinase activity, in words” value is recorded as “can activate”; the “p38β concentration at which maximum increase in activity is observed” value amounted to 10 µM. In addition, the “p38β IC50” value in assay [4] (setting [6]) is “INO”. Besides, in assay [2] (setting [5]), the AC50 is roughly 5 µM. Moreover, the “p38γ IC50” value in assay [2] (setting [6]) was “INO”. In assay [2], the “p38γ Max % Act” value is listed as 115%; the “effect on p38γ MAP kinase activity, in words” value is given as “can activate”; the “p38γ concentration at which maximum increase in activity is observed” value was “(100 μM)”.
As to `COCc1c(C(C)C)nc(C(C)C)c(C=CC(O)CC(O)CC(=O)[O-])c1-c1ccc(F)cc1.COCc1c(C(C)C)nc(C(C)C)c(C=CC(O)CC(O)CC(=O)[O-])c1-c1ccc(F)cc1.[Ca+2]` (centres unmarked) [Cerivastatin calcium, reference compound], in assay [1], the “p38α AC50” value is “ANO” and the IC50 was greater than 30 µM.
For `CC(C)c1nc(N(C)S(C)(=O)=O)nc(-c2ccc(F)cc2)c1/C=C/[C@@H](O)C[C@@H](O)CC(=O)O` [Rosuvastatin sodium, reference compound], the “p38α AC50” value in assay [1] was “ANO”.
Turning to `CC(C)c1c(C(=O)Nc2ccccc2)c(-c2ccccc2)c(-c2ccc(F)cc2)n1CC[C@@H]1C[C@@H](O)CC(=O)O1` [Atorvastatin lactone, atorvastatin lactone], in assay [1], the “p38α AC50” value is “ANO” and the IC50 was determined as 31 µM. Moreover, in assay [3], the AC50 was in the range of 30 to 100 µM; the “p38δ Max % Act” value is recorded as 112%; the “effect on p38δ MAP kinase activity, in words” value was “showed both inhibitory and activation activities”; the “p38δ concentration at which maximum increase in activity is observed” value is recorded as “(30 μM)”. Further, in assay [3] (setting [6]), the IC50 stood at 83 µM. For the same compound, the “p38δ Max % Act” value in assay [3] (listed as atorvastatin lacton) is reported as “about 112%”. The 50% inhibitory concentration (IC50) in assay [4] (setting [6]) was 94 µM. In assay [4], the “p38β Max % Act” value was 19% and the “p38β concentration at which maximum increase in activity is observed” value stood at 10 µM. In assay [2] (setting [5]), the AC50 was roughly 10 µM. Moreover, the IC50 in assay [2] (setting [6]) is roughly 50 µM. In addition, in assay [2], the “p38γ Max % Act” value worked out at 62%; the “effect on p38γ MAP kinase activity, in words” value is “showed both inhibitory and activation activities”; the “p38γ concentration at which maximum increase in activity is observed” value is reported as “(10 μM)”.
For `CCC(C)(C)C(=O)O[C@H]1C[C@@H](C)C=C2C=C[C@H](C)[C@H](CC[C@@H]3C[C@@H](O)CC(=O)O3)[C@H]21` [Simvastatin lactone, simvastatin lactone], in assay [1], the AC50 is roughly 20 µM; the “p38α IC50” value is given as “INO^e”; the “p38α Max % Act” value is listed as 207%; the “effect on p38α MAP kinase activity, in words” value is given as “can activate”. Further, in assay [1], the “p38α concentration at which maximum increase in activity is observed” value worked out at 100 µM. In assay [3], the AC50 was roughly 2 µM; the “p38δ Max % Act” value is recorded as 611%; the “effect on p38δ MAP kinase activity, in words” value is on record as “can activate”; the “p38δ concentration at which maximum increase in activity is observed” value was “(100 μM)”. Also, the “p38δ IC50” value in assay [3] (setting [6]) is given as “INO”. Moreover, in assay [4], the AC50 is roughly 15 µM; the “p38β Max % Act” value was found to be 185%; the “effect on p38β MAP kinase activity, in words” value is “can activate”; the “p38β concentration at which maximum increase in activity is observed” value was determined as 100 µM. Also, the “p38β IC50” value in assay [4] (setting [6]) was “INO”. The AC50 in assay [2] (setting [5]) is 3 to 10 µM. For the same compound, the “p38γ IC50” value in assay [2] (setting [6]) is given as “INO”. Besides, in assay [2], the “p38γ Max % Act” value is given as 127%; the “effect on p38γ MAP kinase activity, in words” value is reported as “can activate”; the “p38γ concentration at which maximum increase in activity is observed” value is recorded as “(100 μM)”.
Regarding `CC(C)n1c(/C=C/C(O)CC(O)CC(=O)O)c(-c2ccc(F)cc2)c2ccccc21` (centres unmarked) [Fluvastatin sodium, fluvastatin sodium, reference compound], the “p38α AC50” value in assay [1] was “ANO”.
